Assay results reported in patent US11324741B2, “Methods for treating visceral fat conditions” (Orexigen Therapeutics, Inc., priority 2008, dated 2022).

How the values were obtained:
Type in all cases: in vivo, human
[1] = tested on: healthy, non-diabetic, obese subjects; assay: Double-blind, placebo-controlled multi-center trial, 24 weeks of treatment (Example 1); settings: for Fasting Glucose / Insulin (mcU/mL) / Triglyceride / Waist (cm) / Weight (%): obese subjects; for Weight (%): naltrexone 48 mg qd, bupropion 400 mg, or 32/400 mg combination; for Visceral fat (%): subset with DEXA and multislice CT scans
Description: A double-blind, placebo-controlled multi-center trial was conducted with 285 healthy, non-diabetic, obese subjects. The subjects were administered either bupropion 200 mg bid, placebo (P), naltrexone 48 mg qd (N1), or bupropion 400 mg with naltrexone 32 mg qd (BN2). 182 subjects completed 24 weeks of treatment. A subset of 60 subjects had dual energy X-ray absorptometry (DEXA) and multislice CT scans to measure body fat, lean tissue and visceral fat (American Diabetes Association Annual Meeting 2007).
The groups were matched at baseline.

[2] = tested on: Subjects; assay: DEXA body scan and multi-slice CT scan of body fat and visceral fat at baseline and 6 months (Example 2); set-up: LS Mean (SE)^, Visceral Adipose Mass / Change from Baseline Mean (SD), Visceral Adipose Mass / LS Mean (SE)^, Total Body Adipose Mass / Change from Baseline Mean (SD), Total Body Adipose Mass: unit not given here; settings: for Change from Baseline Mean (SD), Total Body Adipose Mass: DEXA; for Change from Baseline Mean (SD), Total Body Adipose Mass / Change from Baseline Mean (SD), Visceral Adipose Mass: baseline to 6 months; for Change in Waist Circumference (cm): Table 2, titled Baseline Weight, BMI and Weight Circumference; for Change in Waist Circumference (%) vs. placebo: Table 2; for LS Mean (SE)^, Total Body Adipose Mass / LS Mean (SE)^, Visceral Adipose Mass: change from baseline; for Change from Baseline Mean (SD), Visceral Adipose Mass: multi-slice CT
Description: (§1) Subjects (n=117) received one of six treatments: two placebos (P+P), placebo and naltrexone (P+Nal), bupropion and placebo (Bup+P), bupropion and naltrexone 48 mg (Bup+Nal 48), bupropion and naltrexone 32 mg (Bup+Nal 32), or bupropion and naltrexone 16 mg (Bup+Nal 16).
The mass of selective visceral loss can be calculated based on total fat and the volume of visceral fat.
(§2) The average change in visceral body mass is shown in FIG. 1 for the four treatments. […] Statistically significant improvements were also observed in several important metabolic parameters including: plasma glucose, serum insulin and plasma triglycerides.
The percentage of this decrease was similar in magnitude in both visceral and overall adipose tissue.

[3] = tested on: Subjects; assay: Metabolic parameters (Example 2, Table 5); settings: Table 5, Metabolic Parameters
Description: as §1, §2

| SMILES | Fasting Glucose [1] [mg/dL] | Insulin (mcU/mL) [1] [mcU/mL] | Triglyceride [1] [mg/dL] | Waist (cm) [1] [cm] | Weight (%) [1] [%] | Visceral fat (%) [1] [%] | Change from Baseline Mean (SD), Total Body Adipose Mass [2] | Change in Waist Circumference (cm) [2] [cm] | Change in Waist Circumference (%) vs. placebo [2] [%] | LS Mean (SE)^, Total Body Adipose Mass [2] | LS Mean (SE)^, Visceral Adipose Mass [2] | Change from Baseline Mean (SD), Visceral Adipose Mass [2] | Plasma Glucose [3] [mg/dL] | Serum Insulin (uU/mL) [3] [uU/mL] | Triglycerides [3] [mg/dL] |
| --- | --- | --- | --- | --- | --- | --- | --- | --- | --- | --- | --- | --- | --- | --- | --- |
| CC(NC(C)(C)C)C(=O)c1cccc(Cl)c1 (stereo not drawn) [Bupropion, bupropion] | 3.5 ± 1.5 | −0.5 ± 1.1 | -18.4 ± 9.0 | −2.9 ± 6.0 | −3.14 ± 0.7 | −2.3 ± 5.1 | −4.1 | 1.9 | 1.8 | −2.6 | 0.2 | −2.3 | 3.5 ± 1.5 | −0.5 ± 1.1 | -18.4 ± 9.0 |
| O=C1CC[C@@]2(O)[C@H]3Cc4ccc(O)c5c4[C@@]2(CCN3CC2CC2)[C@H]1O5 [Naltrexone, naltrexone] | 3.4 ± 1.7 | 1.7 ± 1.3 | -17.6 ± 10.4 | −3.8 ± 12.7 | −1.74 ± 0.9 | −0.1 ± 8.7 | −3.2 | −1.5 | −1.4 | −1.5 | 3.5 | −0.1 | 3.4 ± 1.7 | 1.7 ± 1.3 | -17.6 ± 10.4 |
